Source: US9637469B2, “Pyridine derivative” (Teijin Pharma Limited, priority 2012, dated 2017)

Target: T1, human URAT1 (Homo sapiens, UniProt Q96S37)
T1 construct: Full-length cDNA of human URAT1 (hURAT1)
T1 sequence (Q96S37 1-553): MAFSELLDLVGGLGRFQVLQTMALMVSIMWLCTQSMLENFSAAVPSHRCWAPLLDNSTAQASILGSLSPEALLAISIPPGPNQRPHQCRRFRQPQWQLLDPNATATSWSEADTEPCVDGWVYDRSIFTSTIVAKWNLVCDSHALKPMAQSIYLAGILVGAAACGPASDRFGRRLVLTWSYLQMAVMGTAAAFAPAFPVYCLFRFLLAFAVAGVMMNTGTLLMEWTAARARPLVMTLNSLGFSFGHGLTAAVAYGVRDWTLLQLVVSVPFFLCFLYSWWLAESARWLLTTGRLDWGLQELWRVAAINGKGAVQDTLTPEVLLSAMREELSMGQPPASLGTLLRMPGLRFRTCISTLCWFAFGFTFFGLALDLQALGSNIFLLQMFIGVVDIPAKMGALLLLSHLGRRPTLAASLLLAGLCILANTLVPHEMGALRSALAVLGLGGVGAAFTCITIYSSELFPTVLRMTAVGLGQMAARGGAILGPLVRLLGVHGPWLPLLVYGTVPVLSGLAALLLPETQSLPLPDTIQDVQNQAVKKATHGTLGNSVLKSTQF
Assay: Test for inhibition of uric acid transport using human URAT1-expressing cells;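 also: three stars up to 0.2 µM two stars 0.2-2 µM one star 2-20 µM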
Assay type: cell-based
Details: HEK 293 cells expressing human URAT1; 14C-labeled uric acid 25 μM; uptake 37° C. for 5 min
Summary of the method: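 HEK293 cells stably transfected with full-length hURAT1, preincubated 10 min at 37 °C in HBSS with NaCl replaced by Na gluconate. Uptake of 25 μM ¹⁴C-uric acid with compound ran 5 min at 37 °C, then scintillation counting. IC50 derived from % of DMSO-control URAT1-specific uptake.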

Q: Which “Inhibitory Activity (IC50 of uric acid transport inhibition)” value (“Inhibitory Activity” for short) does the source give for `O=C(O)c1c(C2CC2)nc(-c2cncc(Cl)c2)n1Cc1cccc2ccsc12` [Compound A236, 1-(benzo[b]thiophen-7-ylmethyl)-2-(5-chloropyridin-3-yl)-4-cyclopropyl-1H-imidazole-5-carboxylic acid] here?
A: * * *

Q: For `C=Cc1nc(-c2cccnc2)n(Cc2cc(Cl)ccc2Cl)c1C(=O)O` [Compound A102, 1-(2,5-dichlorobenzyl)-2-(pyridin-3-yl)-4-vinyl-1H-imidazole-5-carboxylic acid], which “Inhibitory Activity” value is on record?
A: * *

Q: How did the “Inhibitory Activity” value turn out when `Cc1nc(-c2cncc(F)c2)n(Cc2csc3cccc(Cl)c23)c1C(=O)O` [Compound A141, 1-((4-chlorobenzo[b]thiophen-3-yl)methyl)-2-(5-fluoropyridin-3-yl)-4-methyl-1H-imidazole-5-carboxylic acid] was run?
A: * *

Q: `O=C(O)c1cnc(-c2cncc(F)c2)n1Cc1cc(Cl)ccc1Cl` [Compound A171, 1-(2,5-dichlorobenzyl)-2-(5-fluoropyridin-3-yl)-1H-imidazole-5-carboxylic acid] was tested. Which “Inhibitory Activity” value did it give?
A: * * *

Q: For `O=C(NS(=O)(=O)C1CC1)c1ccc(-c2cncc(Cl)c2)n1Cc1cc(Cl)ccc1Cl` [Compound B30, 2-(5-chloropyridin-3-yl)-N-(cyclopropylsulfonyl)-1-(2,5-dichlorobenzyl)-1H-pyrrole-5-carboxamide], which “Inhibitory Activity” value is on record?
A: * * *

Q: How did the “Inhibitory Activity” value turn out when `O=C(O)c1ccc(-c2cncc(Cl)c2)n1Cc1cc(Cl)ccc1Cl` [Compound B17, 2-(5-chloropyridin-3-yl)-1-(2,5-dichlorobenzyl)-1H-pyrrole-5-carboxylic acid] was run?
A: * * *

Q: `O=C(O)c1ccc(-c2cncc(F)c2)n1Cc1csc2cccc(Cl)c12` [Compound B16, 1-((4-chlorobenzo[b]thiophen-3-yl)methyl)-2-(5-fluoropyridin-3-yl)-1H-pyrrole-5-carboxylic acid] was tested. Which “Inhibitory Activity” value did it give?
A: * * *

Q: With `O=C(O)c1ccc(-c2cccnc2)n1Cc1csc2cccc(Br)c12` [Compound B3, 1-((4-bromobenzo[b]thiophen-3-yl)methyl)-2-(pyridin-3-yl)-1H-pyrrole-5-carboxylic acid] as the compound, how does the “Inhibitory Activity” value read?
A: * * *

Q: With `Cc1nc(-c2cncc(C(F)(F)F)c2)n(Cc2cccc3ccccc23)c1C(=O)O` [Compound A138, 4-methyl-1-(naphthalen-1-ylmethyl)-2-(5-(trifluoromethyl)pyridin-3-yl)-1H-imidazole-5-carboxylic acid] as the compound, how does the “Inhibitory Activity” value read?
A: * *

Q: With `Cc1cncc(-c2ncc(C(=O)O)n2Cc2cc(Cl)ccc2Cl)c1` [Compound A206, 1-(2,5-dichlorobenzyl)-2-(5-methylpyridin-3-yl)-1H-imidazole-5-carboxylic acid] as the compound, how does the “Inhibitory Activity” value read?
A: * * *

Q: Which “Inhibitory Activity” value does the source give for `Cc1ccc(Cn2c(C(=O)O)ccc2-c2cccnc2)c2ccccc12` [Compound B2, 1-((4-methylnaphthalen-1-yl)methyl)-2-(pyridin-3-yl)-1H-pyrrole-5-carboxylic acid] here?
A: * * *

Q: With `Cc1ccc(C)c(Cn2c(-c3cncc(F)c3)nc(C)c2C(=O)O)c1` [Compound A178, 1-(2,5-dimethylbenzyl)-2-(5-fluoropyridin-3-yl)-4-methyl-1H-imidazole-5-carboxylic acid] as the compound, how does the “Inhibitory Activity” value read?
A: * *

Q: For `O=C(NS(=O)(=O)C1CC1)c1c(C2CC2)nc(-c2cccnc2)n1Cc1cccc2ccsc12` [Compound A118, 1-(benzo[b]thiophen-7-ylmethyl)-4-cyclopropyl-N-(cyclopropylsulfonyl)-2-(pyridin-3-yl)-1H-imidazole-5-carboxamide], which “Inhibitory Activity” value is on record?
A: * *

Q: For `CC(C)c1nc(-c2cccnc2)n(Cc2csc3ccccc23)c1C(=O)O` [Compound A40, 1-(benzo[b]thiophen-3-ylmethyl)-4-isopropyl-2-(pyridin-3-yl)-1H-imidazole-5-carboxylic acid], which “Inhibitory Activity” value is on record?
A: * *

Q: For `CC(C)c1nc(-c2cccnc2)n(Cc2cccc3ccccc23)c1C(=O)O` [Compound A24, 4-isopropyl-1-(naphthalen-1-ylmethyl)-2-(pyridin-3-yl)-1H-imidazole-5-carboxylic acid], which “Inhibitory Activity” value is on record?
A: * *

Q: With `CS(=O)(=O)NC(=O)c1ccc(-c2cncc(Cl)c2)n1Cc1cc(Cl)ccc1Cl` [Compound B29, 2-(5-chloropyridin-3-yl)-1-(2,5-dichlorobenzyl)-N-(methylsulfonyl)-1H-pyrrole-5-carboxamide] as the compound, how does the “Inhibitory Activity” value read?
A: * * *

Q: For `CCc1nc(-c2cncc(F)c2)n(Cc2cc(Cl)ccc2Cl)c1C(=O)O` [Compound A150, 1-(2,5-dichlorobenzyl)-4-ethyl-2-(5-fluoropyridin-3-yl)-1H-imidazole-5-carboxylic acid], which “Inhibitory Activity” value is on record?
A: * * *

Q: With `O=C1OCc2nc(-c3cncc(Cl)c3)n(Cc3cc(Cl)ccc3Cl)c21` [Compound A221, 2-(5-chloropyridin-3-yl)-1-(2,5-dichlorobenzyl)-1H-furo[3,4-d]imidazol-6(4H)-one] as the compound, how does the “Inhibitory Activity” value read?
A: * * *

Q: `CCc1nc(-c2cncc(Cl)c2)n(Cc2cc(Cl)ccc2Cl)c1C(=O)O` [Compound A151, 2-(5-chloropyridin-3-yl)-1-(2,5-dichlorobenzyl)-4-ethyl-1H-imidazole-5-carboxylic acid] was tested. Which “Inhibitory Activity” value did it give?
A: * * *

Q: Which “Inhibitory Activity” value does the source give for `O=C(O)c1c(C2CC2)nc(-c2cccnc2)n1Cc1csc2ccccc12` [Compound A36, 1-(benzo[b]thiophen-3-ylmethyl)-4-cyclopropyl-2-(pyridin-3-yl)-1H-imidazole-5-carboxylic acid] here?
A: * *

Q: For `O=C(O)C1(Sc2cnc(-c3cncc(Cl)c3)n2Cc2cc(Cl)ccc2Cl)CCC1` [Compound A263, 1-((2-(5-chloropyridin-3-yl)-1-(2,5-dichlorobenzyl)-1H-imidazol-5-yl)thio)cyclobutanecarboxylic acid], which “Inhibitory Activity” value is on record?
A: * *

Q: `CC(C)c1nc(-c2cncc(F)c2)n(Cc2cc(Cl)ccc2Cl)c1C(=O)O` [Compound A154, 1-(2,5-dichlorobenzyl)-2-(5-fluoropyridin-3-yl)-4-isopropyl-1H-imidazole-5-carboxylic acid] was tested. Which “Inhibitory Activity” value did it give?
A: * * *

Q: How did the “Inhibitory Activity” value turn out when `O=C(O)c1c(C2CC2)nc(-c2cccnc2)n1Cc1cccc2ccsc12` [Compound A82, 1-(benzo[b]thiophen-7-ylmethyl)-4-cyclopropyl-2-(pyridin-3-yl)-1H-imidazole-5-carboxylic acid] was run?
A: * *

Q: For `O=C(O)c1c(OCC(F)(F)F)nc(-c2cccnc2)n1Cc1cc(Cl)ccc1Cl` [Compound A98, 1-(2,5-dichlorobenzyl)-2-(pyridin-3-yl)-4-(2,2,2-trifluoroethoxy)-1H-imidazole-5-carboxylic acid], which “Inhibitory Activity” value is on record?
A: * * *

Q: Which “Inhibitory Activity” value does the source give for `Cc1nc(-c2cncc(Oc3ccccc3)c2)n(Cc2cccc3ccccc23)c1C(=O)O` [Compound A130, 4-methyl-1-(naphthalen-1-ylmethyl)-2-(5-phenoxypyridin-3-yl)-1H-imidazole-5-carboxylic acid] here?
A: * *

Q: How did the “Inhibitory Activity” value turn out when `N#Cc1nc(-c2cccnc2)n(Cc2cc(Cl)ccc2Cl)c1C(=O)O` [Compound A101, 4-cyano-1-(2,5-dichlorobenzyl)-2-(pyridin-3-yl)-1H-imidazole-5-carboxylic acid] was run?
A: * * *

Q: With `O=C(O)c1ccc(-c2cncc(F)c2)n1Cc1cc(Cl)ccc1Cl` [Compound B14, 1-(2,5-dichlorobenzyl)-2-(5-fluoropyridin-3-yl)-1H-pyrrole-5-carboxylic acid] as the compound, how does the “Inhibitory Activity” value read?
A: * * *

Q: For `O=C(O)c1ccc(-c2cccnc2)n1Cc1csc2cccc(Cl)c12` [Compound B10, 1-((4-chlorobenzo[b]thiophen-3-yl)methyl)-2-(pyridin-3-yl)-1H-pyrrole-5-carboxylic acid], which “Inhibitory Activity” value is on record?
A: * * *

Same assay, conditions: HEK 293 cells expressing human URAT1; 14C-labeled uric acid 25 μM; uptake 37° C. for 5 min; read-out: Inhibitory Activity (IC50 of uric acid transport inhibition)

Q: How did the IC50 turn out when `Cc1nc(-c2cccnc2)n(Cc2ccc(Br)cc2)c1C(=O)O` [Compound A56] was run?
A: 2 to 20 µM

Q: Which IC50 does the source give for `Cc1nc(-c2cccnc2)n(Cc2cc(Cl)ccc2Cl)c1C(=O)NS(=O)(=O)C1CC1` [Compound A112] here?
A: 2 to 20 µM

Q: How did the IC50 turn out when `Cc1nc(-c2cccnc2)n(Cc2cccc(Cl)c2F)c1C(=O)O` [Compound A74] was run?
A: 2 to 20 µM

Q: Which IC50 does the source give for `Cc1nc(-c2cccnc2)n(Cc2ccc(Cl)cc2)c1C(=O)O` [Compound A53] here?
A: 2 to 20 µM

Q: With `Cc1nc(-c2ccc(N(C)C)nc2)n(Cc2cc(Cl)ccc2Cl)c1C(=O)O` [Compound A163] as the compound, how does the IC50 read?
A: 2 to 20 µM

Q: How did the IC50 turn out when `Cc1nc(-c2cccnc2)n(Cc2cccc(F)c2)c1C(=O)O` [Compound A49] was run?
A: 2 to 20 µM

Q: `Cc1nc(-c2cccnc2)n(Cc2cc(Cl)ccc2Cl)c1C(=O)NS(C)(=O)=O` [Compound A111, 1-(2,5-dichlorobenzyl)-4-methyl-N-(methylsulfonyl)-2-(pyridin-3-yl)-1H-imidazole-5-carboxamide] was tested. Which IC50 did it give?
A: 2 to 20 µM

Q: `CC(C)(Sc1ncc(-c2cccnc2)n1Cc1cc(Cl)ccc1Cl)C(=O)O` [Compound A264] was tested. Which IC50 did it give?
A: 2 to 20 µM
